{
  "source": "patent US6013642A",
  "about": "“Use of estrone derivatives as steroid sulphatase inhibitors” (priority 1994, dated 2000)",
  "key": {"[1]": {"molecular_target": "T1, human placental microsomal DHEAS sulphatase (Homo sapiens, UniProt P08842)", "T1 construct": "Human placental microsomes prepared as described in; from tissue; host or cells: human placenta, microsomes (prepared as Santner et al 1984)", "T1 sequence (P08842 22-583)": "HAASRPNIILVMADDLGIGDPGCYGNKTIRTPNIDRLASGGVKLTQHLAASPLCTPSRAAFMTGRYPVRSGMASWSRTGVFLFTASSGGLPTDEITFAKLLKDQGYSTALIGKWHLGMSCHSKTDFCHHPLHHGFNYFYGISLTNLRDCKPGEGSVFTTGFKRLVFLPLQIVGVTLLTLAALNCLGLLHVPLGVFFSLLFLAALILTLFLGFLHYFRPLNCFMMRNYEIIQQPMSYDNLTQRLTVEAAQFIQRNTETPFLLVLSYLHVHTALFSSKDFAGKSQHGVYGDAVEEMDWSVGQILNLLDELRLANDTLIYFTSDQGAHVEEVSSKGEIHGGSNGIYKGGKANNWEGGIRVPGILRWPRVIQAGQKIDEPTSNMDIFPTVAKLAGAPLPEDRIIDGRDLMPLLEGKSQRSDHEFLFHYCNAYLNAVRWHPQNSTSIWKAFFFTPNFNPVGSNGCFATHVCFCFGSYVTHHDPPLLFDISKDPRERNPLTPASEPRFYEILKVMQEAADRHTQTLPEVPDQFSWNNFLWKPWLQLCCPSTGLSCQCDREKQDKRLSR", "assay": "Human placental microsomal steroid sulphatase assay", "assay_type": "biochemical", "experimental": "a) Human placental microsomal steroid sulphatase\nENZYME: Human placental microsomes prepared as described in (Santner, S. J., et al (1984) J. Clin. Endocrinol. Metab. 59 29).\nASSAY: All assays were carried out in (at least) duplicate. The reaction mixture consisted of either PBS+250 mM sucrose (placental microsomes), containing 1 μmol/1 DHEAS [concentration chosen because approx. […]] with 0.05% (v/v) [^3 H] substrate and 0.05% (v/v) [^14 C] DHEA) in 0.5% (v/v DMSO. The reaction was initiated by addition of appropriately diluted) such that 10% substrate conversion occurred during the assay) enzyme and incubated for 30 min at 30° C. Reactions were stopped by addition of 1000 μl toluene to the reaction mixture, vortexed (2*40 sec on max setting of multitube vortexer), then allow to settle for 5 min. 500 μl top (solvent) layer removed to scintillation vial. add 10 ml scintillation fluid (Ultima Gold XR) then counted for radioactivity on a scintillation counter. As controls, enzyme was excluded from some reaction mixtures and 50% solvent and aqueous layers removed and counted for radioactivity in order to determine background (in solvent layer) and total (in aqueous layer) [^3 H]. [^14 C] DHEA is included to enable back correction to allow for product (DHEA) recovery (normally >98%). […]"}, "[2]": {"system": "mouse contact sensitisation model", "assay": "Cellular infiltrate (anti-CD3 / anti-Mac-1 positive cells) in challenged ears, contact sensitisation", "assay_type": "in vivo, mice", "conditions": "Experiment 7, FIG. 10, 24 h following challenge", "experimental": "Animals were randomised into 7 groups (n=7-10) and steroids given on days 0 and 5. At 24 h following challenge, ears were removed, fixed and stained with either an anti-CD3 (T-cells) or anti-Mac-1 (monocytes/macrophages) antibody and the number of positive cells counted in 10 random fields."}},
  "note": "pIC50: −log10 of the molar value.",
  "data": [
    {"smiles": "C[C@]12CC[C@@H]3c4ccc(OS(N)(=O)=O)cc4CC[C@H]3[C@@H]1CCC2=O", "note": "[CT 2251, Estrone 3-0-sulphamate]", "values": [
      {"measurement": "pIC50", "setting": "[1]", "result": 8.30},
      {"measurement": "effect on DHEAS-augmented cell infiltrate", "setting": "[2]; CT2251 10 mg/kg with DHEAS 5 mg/kg", "result": "effectively reversed"},
      {"measurement": "number of infiltrating CD3 positive cells, inhibitor on its own", "setting": "[2]; CT2251 10 mg/kg", "result": "able to further reduce the number of infiltrating CD3 positive cells"}
    ]}
  ]
}
